From US6593322B1, “Compounds and methods for modulation of estrogen receptors” (Signal Pharmaceuticals, Inc., priority 1999, dated 2003)
pIC50: −log10 of the molar value. Structures can show the parent of a compound that is named as a salt.

Tests used:
U2OS ER-Minus cells = assay: IL-6 production in ER-Minus (parental) U2OS osteosarcoma cells; type: cell-based, human; conditions: 24 h
human full-length ER-α = target: T1, human full-length ER-α (Homo sapiens, UniProt P03372); assay: IL-6 production in U2OS osteosarcoma cells stably transfected with ER-α; type: cell-based
T1 construct: expression vectors for human full-length ER-α or ER-β; expressed in transfected cells
T1 sequence (P03372 1-595): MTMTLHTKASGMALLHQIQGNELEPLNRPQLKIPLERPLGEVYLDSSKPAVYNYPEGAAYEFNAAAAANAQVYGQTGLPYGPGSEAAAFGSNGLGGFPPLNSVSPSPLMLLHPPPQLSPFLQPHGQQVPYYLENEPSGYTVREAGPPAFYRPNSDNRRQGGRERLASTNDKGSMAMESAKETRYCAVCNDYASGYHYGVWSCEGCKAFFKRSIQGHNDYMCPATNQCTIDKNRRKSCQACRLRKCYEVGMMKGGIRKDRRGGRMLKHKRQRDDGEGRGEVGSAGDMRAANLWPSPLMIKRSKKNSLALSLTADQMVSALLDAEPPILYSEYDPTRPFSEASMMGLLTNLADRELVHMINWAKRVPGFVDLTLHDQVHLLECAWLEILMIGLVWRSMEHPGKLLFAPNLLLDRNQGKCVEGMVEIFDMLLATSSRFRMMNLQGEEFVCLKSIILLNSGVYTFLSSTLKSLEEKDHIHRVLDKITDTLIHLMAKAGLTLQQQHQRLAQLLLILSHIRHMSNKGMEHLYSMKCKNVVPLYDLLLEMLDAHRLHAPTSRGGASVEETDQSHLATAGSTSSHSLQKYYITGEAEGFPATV

human full-length ER-β = target: T2, human full-length ER-β (Homo sapiens, UniProt Q92731); assay: IL-6 production in U2OS osteosarcoma cells stably transfected with ER-β; type: cell-based
T2 construct: expression vectors for human full-length ER-α or ER-β; expressed in transfected cells
T2 sequence (Q92731 whole entry): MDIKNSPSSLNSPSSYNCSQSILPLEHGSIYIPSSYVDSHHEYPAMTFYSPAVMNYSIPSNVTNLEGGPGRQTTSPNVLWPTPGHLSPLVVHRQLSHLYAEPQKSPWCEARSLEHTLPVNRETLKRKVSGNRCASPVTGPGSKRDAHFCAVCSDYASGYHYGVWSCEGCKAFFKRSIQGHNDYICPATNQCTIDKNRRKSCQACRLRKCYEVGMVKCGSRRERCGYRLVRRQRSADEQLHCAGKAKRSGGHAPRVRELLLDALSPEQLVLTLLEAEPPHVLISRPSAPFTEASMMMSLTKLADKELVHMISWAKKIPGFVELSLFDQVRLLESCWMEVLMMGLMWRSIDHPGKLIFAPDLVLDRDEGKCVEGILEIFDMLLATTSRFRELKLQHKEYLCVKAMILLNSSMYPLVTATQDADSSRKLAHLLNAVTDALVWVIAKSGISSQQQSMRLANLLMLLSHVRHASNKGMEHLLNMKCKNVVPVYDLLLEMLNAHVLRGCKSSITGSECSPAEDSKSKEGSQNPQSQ

[1] = IL-6 after 10 ng/ml IL-1β and 10 ng/ml TNF-α, 50% inhibition relative to DMSO control

Compound	pIC50 (U2OS ER-Minus cells; [1])	pIC50 (human full-length ER-α)	pIC50 (human full-length ER-β)	pIC50 (U2OS ER-Minus cells; Homo sapiens, U2OS)	melting point
4-Hydroxy-Tamoxifen	< 6.00	–	–	–	–
C[C@]12CC[C@@H]3c4ccc(O)cc4CC[C@H]3[C@@H]1CC[C@@H]2O [17-β-Estradiol]	< 6.00	–	–	–	–
Oc1ccc2c(c1)CCN(c1ccc(F)cc1)C2c1ccc(OCCN2CCCCC2)cc1 (stereo not shown) [Compound A, reference compound]	–	9.00	< 5.00	< 5.00	–
Oc1ccc2c(c1)CCN(c1ccccc1)C2Cc1ccc(Br)cc1 (stereo not shown) [Example 2, 1-(4-Bromobenzyl)-2-phenyl-1,2,3,4-tetrahydroisoquinolin-6-ol]	–	< 6.00	6.97	< 6.00	–
Oc1ccc2c(c1)CCN(c1ccc(F)cc1)C2Cc1ccc(OCCN2CCCCC2)cc1 (stereo not shown) [Example 5]	–	5.70	6.55	< 5.00	–
Oc1ccc2c(c1)CCCN(c1ccc(F)cc1)C2Cc1ccc(OCCN2CCCCC2)cc1 (stereo not shown) [Example 8]	–	5.00	5.30	< 5.00	–
CCN(CCOc1ccc(CC2c3ccc(O)cc3CCN2c2ccc(F)cc2)cc1)Cc1ccccc1 (stereo not shown) [Example 21, 1-{4-[(2-(N-Benzyl-N-ethyl)amino)ethoxy]benzyl}-2-(4-fluorophenyl)-1,2,3,4-tetrahydroisoquinolin-6-ol]	–	–	–	–	47 to 49 °C
O=C(c1ccc(OCCN2CCCCC2)cc1)c1c(-c2ccc(O)cc2)sc2cc(O)ccc12 [Raloxifene Hydrochloride]	–	–	–	< 6.00	–
